Source: ChEMBL document CHEMBL6127104, “Prorocentin-5: A Cytotoxic Polyketide from the Benthic Marine Dinoflagellate Prorocentrum lima” (J Nat Prod, 2024)

Columns and labels:
Assay type in all cases: functional
[1] = tested on: HCT-116; assay: Induction of apoptosis in human HCT-116 cells assessed as late apoptotic cells at 0.1 uM incubated for 24 hrs by Annexin V-FITC/PI staining based flow cytometric analysis (reference value: 6.15 %)
[2] = tested on: HCT-116; assay: Induction of cell cycle arrest in human HCT-116 cells assessed as accumulation of cells at G0/G1 phase at 1 uM incubated for 24 hrs by flow cytometric analysis (reference value: 90.2 %)
[3] = tested on: HepG2; assay: Induction of apoptosis in human HepG2 cells assessed as necrotic cells at 0.1 uM incubated for 24 hrs by Annexin V-FITC/PI staining based flow cytometric analysis (reference value: 3.02 %)
[4] = tested on: N2a; assay: Induction of cell cycle arrest in mouse Neuro2a cells assessed as accumulation of cells at G2/M phase at 0.1 uM incubated for 24 hrs by flow cytometric analysis (reference value: 8.0 %)
[5] = tested on: HepG2; assay: Induction of apoptosis in human HepG2 cells assessed as early apoptotic cells at 1 uM incubated for 24 hrs by Annexin V-FITC/PI staining based flow cytometric analysis (reference value: 4.85 %)
[6] = tested on: N2a; assay: Induction of apoptosis in mouse Neuro2a cells assessed as late apoptotic cells at 1 uM incubated for 24 hrs by Annexin V-FITC/PI staining based analysis (reference value: 0.81 %)
[7] = tested on: HCT-116; assay: Induction of cell cycle arrest in human HCT-116 cells assessed as accumulation of cells at S phase at 0.1 uM incubated for 24 hrs by flow cytometric analysis (reference value: 19.2 %)
[8] = tested on: HCT-116; assay: Induction of cell cycle arrest in human HCT-116 cells assessed as accumulation of cells at G2/M phase at 0.1 uM incubated for 24 hrs by flow cytometric analysis (reference value: 30.6 %)
[9] = tested on: N2a; assay: Induction of apoptosis in mouse Neuro2a cells assessed as late apoptotic cells at 0.1 uM incubated for 24 hrs by Annexin V-FITC/PI staining based analysis (reference value: 0.81 %)
[10] = tested on: HepG2; assay: Induction of cell cycle arrest in human HepG2 cells assessed as accumulation of cells at S phase at 1 uM incubated for 24 hrs by flow cytometric analysis (reference value: 27.8 %)
[11] = tested on: HepG2; assay: Induction of apoptosis in human HepG2 cells assessed as viable cells at 1 uM incubated for 24 hrs by Annexin V-FITC/PI staining based flow cytometric analysis (reference value: 90.08 %); conditions: read-out: Activity
[12] = tested on: N2a; assay: Induction of cell cycle arrest in mouse Neuro2a cells assessed as accumulation of cells at S phase at 1 uM incubated for 24 hrs by flow cytometric analysis (reference value: 30.5 %)
[13] = tested on: N2a; assay: Induction of apoptosis in mouse Neuro2a cells assessed as viable cells at 0.1 uM incubated for 24 hrs by Annexin V-FITC/PI staining based analysis (reference value: 91.70 %); conditions: read-out: Activity
[14] = tested on: N2a; assay: Induction of apoptosis in mouse Neuro2a cells assessed as early apoptotic cells at 0.1 uM incubated for 24 hrs by Annexin V-FITC/PI staining based analysis (reference value: 3.17 %)
[15] = tested on: HepG2; assay: Induction of cell cycle arrest in human HepG2 cells assessed as accumulation of cells at G0/G1 phase at 1 uM incubated for 24 hrs by flow cytometric analysis (reference value: 66.4 %)
[16] = tested on: HepG2; assay: Induction of apoptosis in human HepG2 cells assessed as fold increase in late apoptotic cells at 1 uM incubated for 24 hrs by Annexin V-FITC/PI staining based flow cytometric analysis
[17] = tested on: HepG2; assay: Induction of cell cycle arrest in human HepG2 cells assessed as accumulation of cells at G0/G1 phase at 0.1 uM incubated for 24 hrs by flow cytometric analysis (reference value: 66.4 %)
[18] = tested on: HepG2; assay: Induction of apoptosis in human HepG2 cells assessed as early apoptotic cells at 0.1 uM incubated for 24 hrs by Annexin V-FITC/PI staining based flow cytometric analysis (reference value: 4.85 %)
[19] = tested on: HepG2; assay: Induction of cell cycle arrest in human HepG2 cells assessed as accumulation of cells at G2/M phase at 1 uM incubated for 24 hrs by flow cytometric analysis (reference value: 27.8 %)
[20] = tested on: HCT-116; assay: Induction of apoptosis in human HCT-116 cells assessed as viable cells at 0.1 uM incubated for 24 hrs by Annexin V-FITC/PI staining based flow cytometric analysis (reference value: 90.50 %); conditions: read-out: Activity
[21] = tested on: HepG2; assay: Induction of apoptosis in human HepG2 cells assessed as late apoptotic cells at 0.1 uM incubated for 24 hrs by Annexin V-FITC/PI staining based flow cytometric analysis (reference value: 2.05 %)
[22] = tested on: N2a; assay: Induction of apoptosis in mouse Neuro2a cells assessed as viable cells at 1 uM incubated for 24 hrs by Annexin V-FITC/PI staining based analysis (reference value: 91.70 %); conditions: read-out: Activity
[23] = tested on: HCT-116; assay: Induction of cell cycle arrest in human HCT-116 cells assessed as accumulation of cells at S phase at 1 uM incubated for 24 hrs by flow cytometric analysis (reference value: 19.2 %)
[24] = tested on: N2a; assay: Induction of apoptosis in mouse Neuro2a cells assessed as fold increase in early apoptotic cells at 1 uM incubated for 24 hrs by Annexin V-FITC/PI staining based analysis
[25] = tested on: N2a; assay: Induction of apoptosis in mouse Neuro2a cells assessed as early apoptotic cells at 1 uM incubated for 24 hrs by Annexin V-FITC/PI staining based analysis (reference value: 3.17 %)
[26] = tested on: HepG2; assay: Induction of cell cycle arrest in human HepG2 cells assessed as accumulation of cells at S phase at 0.1 uM incubated for 24 hrs by flow cytometric analysis (reference value: 27.8 %)
[27] = tested on: N2a; assay: Induction of cell cycle arrest in mouse Neuro2a cells assessed as accumulation of cells at G0/G1 phase at 1 uM incubated for 24 hrs by flow cytometric analysis (reference value: 61.5 %)
[28] = tested on: HCT-116; assay: Induction of apoptosis in human HCT-116 cells assessed as early apoptotic cells at 0.1 uM incubated for 24 hrs by Annexin V-FITC/PI staining based flow cytometric analysis (reference value: 1.90 %)
[29] = tested on: N2a; assay: Induction of cell cycle arrest in mouse Neuro2a cells assessed as accumulation of cells at S phase at 0.1 uM incubated for 24 hrs by flow cytometric analysis (reference value: 30.5 %)
[30] = tested on: HCT-116; assay: Induction of apoptosis in human HCT-116 cells assessed as necrotic cells at 0.1 uM incubated for 24 hrs by Annexin V-FITC/PI staining based flow cytometric analysis (reference value: 1.45 %)
[31] = tested on: N2a; assay: Induction of apoptosis in mouse Neuro2a cells assessed as necrotic cells at 1 uM incubated for 24 hrs by Annexin V-FITC/PI staining based analysis (reference value: 4.33 %)
[32] = tested on: HepG2; assay: Induction of apoptosis in human HepG2 cells assessed as viable cells at 0.1 uM incubated for 24 hrs by Annexin V-FITC/PI staining based flow cytometric analysis (reference value: 90.08 %); conditions: read-out: Activity
[33] = tested on: HepG2; assay: Induction of apoptosis in human HepG2 cells assessed as fold increase in early apoptotic cells at 1 uM incubated for 24 hrs by Annexin V-FITC/PI staining based flow cytometric analysis

| Structure (SMILES) | Activity [1] | Activity [2] | Activity [3] | Activity [4] | Activity [5] | Activity [6] | Activity [7] | Activity [8] | Activity [9] | Activity [10] | viability at 1 µM [11] | Activity [12] | viability at 0.1 µM [13] | Activity [14] | Activity [15] | fold change (FC) [16] | Activity [17] | Activity [18] | Activity [19] | viability at 0.1 µM [20] | other results |
| --- | --- | --- | --- | --- | --- | --- | --- | --- | --- | --- | --- | --- | --- | --- | --- | --- | --- | --- | --- | --- | --- |
| CC(=O)CCCCC[C@@H](O)[C@H](C)C[C@H](C)CC[C@@H]1O[C@H]1C[C@@H]1CC[C@@H](/C=C/C=C/C[C@H](O)C[C@H]2C=C[C@@H](C=C(C)C)O2)O1 | 14.55% | 6.8% | 1.88% | 10.4% | 27.87% | 24.75% | 18.7% | 31.9% | 7.2% | 34.7% | 49.8% | 43.1% | 76% | 15.67% | 52.3% | 10 | 54.5% | 30.92% | 13% | 75.2% | Activity [21]: 15.02%; viability at 1 µM [22]: 55.1%; Activity [23]: 26%; fold change (FC) [24]: 5.5; Activity [25]: 17.3%; Activity [26]: 36%; Activity [27]: 43.2%; Activity [28]: 4.9%; Activity [29]: 38.1%; Activity [30]: 5.4%; Activity [31]: 2.85%; viability at 0.1 µM [32]: 52.2%; fold change (FC) [33]: 5.8 |
| C=C1[C@@H](O)[C@@H]2O[C@]3(CC[C@H](/C=C/[C@@H](C)[C@@H]4CC(C)=C[C@@]5(O[C@H](C[C@@](C)(O)C(=O)O)CC[C@H]5O)O4)O3)CC[C@H]2O[C@@H]1[C@@H](O)C[C@H](C)[C@H]1O[C@@]2(CCCCO2)CC[C@H]1C [OKADAIC ACID] | 7.55% | 55.5% | 9.05% | 13% | 23.72% | 10.7% | 23% | 44.6% | 7.75% | 37.2% | 50.9% | 55% | 76.4% | 10.91% | 49.5% | 11 | 48.5% | 13.5% | 13.3% | 79.2% | Activity [21]: 24.73%; viability at 1 µM [22]: 59.7%; Activity [23]: 23.9%; fold change (FC) [24]: 9.2; Activity [25]: 29.01%; Activity [26]: 36.8%; Activity [27]: 36%; Activity [28]: 0.8%; Activity [29]: 56.6%; Activity [30]: 12.45%; Activity [31]: 0.57%; viability at 0.1 µM [32]: 52.7%; fold change (FC) [33]: 4.9 |
